{
  "source": "paper PMC8032764",
  "about": "(Scientific Reports, 2021)",
  "key": {"[1]": {"molecular_target": "T1, GABAA-α5 receptors (Homo sapiens, UniProt P18507+P31644)", "T1 construct": "occupancy at the GABAA-α5 subunit-containing receptors in the human brain after oral dosing; from tissue; host or cells: brain of healthy human volunteers, in vivo PET", "T1 sequence (P31644 32-462)": "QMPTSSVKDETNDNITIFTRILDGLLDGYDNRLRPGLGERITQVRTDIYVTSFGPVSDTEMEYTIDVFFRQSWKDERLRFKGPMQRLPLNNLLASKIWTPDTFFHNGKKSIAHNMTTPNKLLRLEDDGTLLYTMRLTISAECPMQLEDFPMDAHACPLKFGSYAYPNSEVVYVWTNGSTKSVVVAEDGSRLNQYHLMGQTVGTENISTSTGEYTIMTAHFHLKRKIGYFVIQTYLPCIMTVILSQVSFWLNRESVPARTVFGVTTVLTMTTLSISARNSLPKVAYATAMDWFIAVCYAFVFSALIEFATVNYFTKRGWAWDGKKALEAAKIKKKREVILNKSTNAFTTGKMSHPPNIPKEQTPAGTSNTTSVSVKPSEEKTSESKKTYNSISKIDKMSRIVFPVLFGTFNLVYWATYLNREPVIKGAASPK", "T1 sequence (P18507 40-467 limits assumed)": "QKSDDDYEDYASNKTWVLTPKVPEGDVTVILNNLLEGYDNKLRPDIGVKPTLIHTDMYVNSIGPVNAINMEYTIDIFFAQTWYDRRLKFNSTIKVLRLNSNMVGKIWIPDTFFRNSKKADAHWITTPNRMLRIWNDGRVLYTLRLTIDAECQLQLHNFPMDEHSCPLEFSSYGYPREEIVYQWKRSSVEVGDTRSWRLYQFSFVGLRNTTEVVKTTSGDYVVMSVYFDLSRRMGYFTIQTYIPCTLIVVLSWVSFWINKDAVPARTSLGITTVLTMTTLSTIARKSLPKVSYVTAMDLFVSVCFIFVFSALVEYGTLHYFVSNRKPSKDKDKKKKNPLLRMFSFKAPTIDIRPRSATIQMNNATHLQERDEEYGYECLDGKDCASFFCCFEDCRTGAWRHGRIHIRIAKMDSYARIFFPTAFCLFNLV", "T1 sequence (P28472 26-473 partner)": "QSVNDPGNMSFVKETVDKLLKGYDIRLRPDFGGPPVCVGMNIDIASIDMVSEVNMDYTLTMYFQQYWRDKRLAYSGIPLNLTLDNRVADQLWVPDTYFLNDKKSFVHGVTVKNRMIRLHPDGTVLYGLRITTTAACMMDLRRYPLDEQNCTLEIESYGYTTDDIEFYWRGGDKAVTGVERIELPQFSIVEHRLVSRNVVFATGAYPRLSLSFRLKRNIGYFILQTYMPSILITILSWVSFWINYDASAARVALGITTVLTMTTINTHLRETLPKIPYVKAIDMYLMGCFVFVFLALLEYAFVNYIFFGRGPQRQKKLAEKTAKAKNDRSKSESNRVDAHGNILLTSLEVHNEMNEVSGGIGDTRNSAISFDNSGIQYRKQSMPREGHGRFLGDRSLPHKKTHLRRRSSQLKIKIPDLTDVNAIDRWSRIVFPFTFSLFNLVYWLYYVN", "assay": "[11C]-Ro 15-4513 PET receptor occupancy study in healthy volunteers", "assay_type": "in vivo", "conditions": "for EC50: Emax model, nine subjects", "description": "The PET study was undertaken as part of Protocol BP25611 and after four protocol amendments was described as: “A single-center, single blind molecular and functional imaging study to assess GABAA-α5 receptor expression, occupancy and functional connectivity in the brains of individuals with Down syndrome and healthy controls following a single oral administration of RO5186582 or placebo”. Full details of the protocol can be found in the Supplementary Information. The study was registered on August 17, 2012 with clinicaltrials.gov identifier NCT01667367.\nSubjects returned for a follow-up visit approximately 7 to 10 days after their last dose of study medication.\nThe study was single-blind, i.e., subjects were blinded to dose. Blood sampling was performed at four different timepoints starting 30 min before the post dose PET scan.\nTissue time activity curves were analyzed using the simplified reference tissue model (SRTM[71]), with a basis pursuit implementation of the SRTM[72], to directly estimate the binding potential (BPND) in all target regions. […] Therefore, the time-activity curve derived from the cerebellum was used as an input for SRTM analysis.\nOccupancy in scan 2 was estimated as a fractional reduction in the relevant baseline BPND (see Eq. (3)).3 Occ=BPNDBaseline-BPNDBasmisanil/BPNDBaseline.\nThe pharmacokinetic/pharmacodynamic population for GABAA-α5 receptor occupancy consisted of data from 9 subjects."}, "[2]": {"system": "cynomolgus macaques", "assay": "Object retrieval task", "assay_type": "in vivo, Macaca fascicularis", "conditions": "2 h prior to testing", "method": "Twelve cynomolgus macaques were presented with a clear acrylic box with one open side baited with a food treat, as described previously[14],[38]. The test is easy when the open side of the box is directed towards the subject and difficult when the open sides face other directions. […] Compound doses were administered in a pseudorandom order. Administration of dose and behavioral measurements were completed blind. Data were analysed using a one-way repeated measures ANOVA followed, in significant cases, by a post hoc Dunnett’s test. Plasma samples were collected from the same three subjects at each dose group at 3 h post administration."}, "[3]": {"conditions": "subject 11010, 40 mg, 3.75 h prior to scan"}, "[4]": {"conditions": "subject 11020, 160 mg, 3.12 h prior to scan"}, "[5]": {"conditions": "subject 11021, 160 mg, 3.00 h prior to scan"}, "[6]": {"conditions": "subject 13010, 40 mg, 2.63 h prior to scan"}, "[7]": {"conditions": "subject 13030, 1000 mg, 4.75 h prior to scan"}, "[8]": {"conditions": "subject 13031, 1000 mg, 4.77 h prior to scan"}, "[9]": {"conditions": "subject 13040, 20 mg, 1.48 h prior to scan"}, "[10]": {"conditions": "subject 13041, 20 mg, 2.20 h prior to scan"}, "[11]": {"conditions": "subject 13050, 80 mg, 2.43 h prior to scan"}},
  "note": "Where two headings read alike, the source gives them in different places.",
  "data": [
    {"smiles": "Cc1onc(-c2ccc(F)cc2)c1COc1ccc(C(=O)N2CCS(=O)(=O)CC2)cn1", "note": "[basmisanil]", "values": [
      {"measurement": "EC50", "setting": "[1]; read-out: EC50 of receptor occupancy, free plasma concentration", "result": 67, "unit": "nM"},
      {"measurement": "EC50", "setting": "[1]; read-out: EC50 of receptor occupancy, total plasma concentration (converted)", "result": "~1210", "unit": "nM"},
      {"measurement": "Receptor occupancy, Accumbens", "setting": "[1]; [3]", "result": 52.1, "unit": "%"},
      {"measurement": "Receptor occupancy, Amygdala", "setting": "[1]; [3]", "result": 53.5, "unit": "%"},
      {"measurement": "Receptor occupancy, Anterior cingulate", "setting": "[1]; [3]", "result": 44.8, "unit": "%"},
      {"measurement": "Receptor occupancy, Hippocampus", "setting": "[1]; [3]", "result": 48.4, "unit": "%"},
      {"measurement": "Receptor occupancy, Insular cortex", "setting": "[1]; [3]", "result": 44.6, "unit": "%"},
      {"measurement": "Receptor occupancy, Mean", "setting": "[1]; [3]", "result": 48.68, "unit": "%"},
      {"measurement": "Receptor occupancy, Accumbens", "setting": "[1]; [4]", "result": 86.6, "unit": "%"},
      {"measurement": "Receptor occupancy, Amygdala", "setting": "[1]; [4]", "result": 91.4, "unit": "%"},
      {"measurement": "Receptor occupancy, Anterior cingulate", "setting": "[1]; [4]", "result": 75.6, "unit": "%"},
      {"measurement": "Receptor occupancy, Hippocampus", "setting": "[1]; [4]", "result": 87.2, "unit": "%"},
      {"measurement": "Receptor occupancy, Insular cortex", "setting": "[1]; [4]", "result": 75.2, "unit": "%"},
      {"measurement": "Receptor occupancy, Mean", "setting": "[1]; [4]", "result": 83.2, "unit": "%"},
      {"measurement": "Receptor occupancy, Accumbens", "setting": "[1]; [5]", "result": 87.0, "unit": "%"},
      {"measurement": "Receptor occupancy, Amygdala", "setting": "[1]; [5]", "result": 85.4, "unit": "%"},
      {"measurement": "Receptor occupancy, Anterior cingulate", "setting": "[1]; [5]", "result": 76.4, "unit": "%"},
      {"measurement": "Receptor occupancy, Hippocampus", "setting": "[1]; [5]", "result": 85.9, "unit": "%"},
      {"measurement": "Receptor occupancy, Insular cortex", "setting": "[1]; [5]", "result": 77.2, "unit": "%"},
      {"measurement": "Receptor occupancy, Mean", "setting": "[1]; [5]", "result": 82.38, "unit": "%"},
      {"measurement": "Receptor occupancy, Accumbens", "setting": "[1]; [6]", "result": 37.3, "unit": "%"},
      {"measurement": "Receptor occupancy, Amygdala", "setting": "[1]; [6]", "result": 40, "unit": "%"},
      {"measurement": "Receptor occupancy, Anterior cingulate", "setting": "[1]; [6]", "result": 32.7, "unit": "%"},
      {"measurement": "Receptor occupancy, Hippocampus", "setting": "[1]; [6]", "result": 41.3, "unit": "%"},
      {"measurement": "Receptor occupancy, Insular cortex", "setting": "[1]; [6]", "result": 32, "unit": "%"},
      {"measurement": "Receptor occupancy, Mean", "setting": "[1]; [6]", "result": 36.66, "unit": "%"},
      {"measurement": "Receptor occupancy, Accumbens", "setting": "[1]; [7]", "result": 89.5, "unit": "%"},
      {"measurement": "Receptor occupancy, Amygdala", "setting": "[1]; [7]", "result": 93.1, "unit": "%"},
      {"measurement": "Receptor occupancy, Anterior cingulate", "setting": "[1]; [7]", "result": 79.1, "unit": "%"},
      {"measurement": "Receptor occupancy, Hippocampus", "setting": "[1]; [7]", "result": 94.2, "unit": "%"},
      {"measurement": "Receptor occupancy, Insular cortex", "setting": "[1]; [7]", "result": 79.9, "unit": "%"},
      {"measurement": "Receptor occupancy, Mean", "setting": "[1]; [7]", "result": 87.16, "unit": "%"},
      {"measurement": "Receptor occupancy, Accumbens", "setting": "[1]; [8]", "result": 93.7, "unit": "%"},
      {"measurement": "Receptor occupancy, Amygdala", "setting": "[1]; [8]", "result": 97.4, "unit": "%"},
      {"measurement": "Receptor occupancy, Anterior cingulate", "setting": "[1]; [8]", "result": 82.1, "unit": "%"},
      {"measurement": "Receptor occupancy, Hippocampus", "setting": "[1]; [8]", "result": 94.9, "unit": "%"},
      {"measurement": "Receptor occupancy, Insular cortex", "setting": "[1]; [8]", "result": 82.2, "unit": "%"},
      {"measurement": "Receptor occupancy, Mean", "setting": "[1]; [8]", "result": 90.06, "unit": "%"},
      {"measurement": "Receptor occupancy, Accumbens", "setting": "[1]; [9]", "result": 29.6, "unit": "%"},
      {"measurement": "Receptor occupancy, Amygdala", "setting": "[1]; [9]", "result": 30.9, "unit": "%"},
      {"measurement": "Receptor occupancy, Anterior cingulate", "setting": "[1]; [9]", "result": 26.2, "unit": "%"},
      {"measurement": "Receptor occupancy, Hippocampus", "setting": "[1]; [9]", "result": 26.8, "unit": "%"},
      {"measurement": "Receptor occupancy, Insular cortex", "setting": "[1]; [9]", "result": 26.7, "unit": "%"},
      {"measurement": "Receptor occupancy, Mean", "setting": "[1]; [9]", "result": 28.04, "unit": "%"},
      {"measurement": "Receptor occupancy, Accumbens", "setting": "[1]; [10]", "result": 31.8, "unit": "%"},
      {"measurement": "Receptor occupancy, Amygdala", "setting": "[1]; [10]", "result": 34.7, "unit": "%"},
      {"measurement": "Receptor occupancy, Anterior cingulate", "setting": "[1]; [10]", "result": 31.7, "unit": "%"},
      {"measurement": "Receptor occupancy, Hippocampus", "setting": "[1]; [10]", "result": 35.8, "unit": "%"},
      {"measurement": "Receptor occupancy, Insular cortex", "setting": "[1]; [10]", "result": 31.7, "unit": "%"},
      {"measurement": "Receptor occupancy, Mean", "setting": "[1]; [10]", "result": 33.14, "unit": "%"},
      {"measurement": "Receptor occupancy, Accumbens", "setting": "[1]; [11]", "result": 64.2, "unit": "%"},
      {"measurement": "Receptor occupancy, Amygdala", "setting": "[1]; [11]", "result": 63.5, "unit": "%"},
      {"measurement": "Receptor occupancy, Anterior cingulate", "setting": "[1]; [11]", "result": 55.8, "unit": "%"},
      {"measurement": "Receptor occupancy, Hippocampus", "setting": "[1]; [11]", "result": 63, "unit": "%"},
      {"measurement": "Receptor occupancy, Mean", "setting": "[1]; [11]", "result": 60.86, "unit": "%"},
      {"measurement": "percentage of correct first reaches during difficult trials", "setting": "[2]; 1 and 30 mg/kg p.o.", "result": "no marked improvement on performance"},
      {"measurement": "percentage of correct first reaches during difficult trials", "setting": "[2]; 3 and 10 mg/kg p.o.", "result": "significantly improved"}
    ]}
  ]
}
